Experimental data taken from ChEMBL document CHEMBL3046774, “Synthesis and insect antifeedant activity of precocene derivatives with lactone moiety” (2005).
Active and inactive are the calls of the source. No cut-off for these calls is given here.

Key:
[1] = tested on: Trogoderma granarium; experiment: Antifeeding activity against Trogoderma granarium (khapra beetle) larvaes in compound treated wheat wafer disk assessed as total coefficient of deterrence by feeding deterrent activity test; format: functional
[2] = tested on: Leptinotarsa decemlineata; experiment: Antifeeding activity against Leptinotarsa decemlineata adults in compound treated wheat wafer disk assessed as total coefficient of deterrence by feeding deterrent activity test; format: functional
[3] = tested on: Tribolium confusum; experiment: Antifeeding activity against Tribolium confusum (confused flour beetle) adults in compound treated wheat wafer disk assessed as relative coefficient of deterrence by feeding deterrent activity test; format: functional
[4] = tested on: Sitophilus granarius; experiment: Antifeeding activity against Sitophilus granarius (granary weevil) adults in compound treated wheat wafer disk assessed as total coefficient of deterrence by feeding deterrent activity test; format: functional
[5] = tested on: Aphididae; experiment: Antifeeding activity against Aphididae (aphids) in compound treated chinese cabbage leaves assessed as settled aphids measured up to 24 hr; format: functional, organism-based
[6] = tested on: Leptinotarsa decemlineata; experiment: Antifeeding activity against Leptinotarsa decemlineata larvaes in compound treated wheat wafer disk assessed as total coefficient of deterrence by feeding deterrent activity test; format: functional
[7] = tested on: Leptinotarsa decemlineata; experiment: Antifeeding activity against Leptinotarsa decemlineata adults in compound treated wheat wafer disk assessed as relative coefficient of deterrence by feeding deterrent activity test; format: functional
[8] = tested on: Tribolium confusum; experiment: Antifeeding activity against Tribolium confusum (confused flour beetle) larvaes in compound treated wheat wafer disk assessed as total coefficient of deterrence by feeding deterrent activity test; format: functional
[9] = tested on: Tribolium confusum; experiment: Antifeeding activity against Tribolium confusum (confused flour beetle) larvaes in compound treated wheat wafer disk assessed as relative coefficient of deterrence by feeding deterrent activity test; format: functional
[10] = tested on: Leptinotarsa decemlineata; experiment: Antifeeding activity against Leptinotarsa decemlineata adults in compound treated wheat wafer disk assessed as absolute coefficient of deterrence by feeding deterrent activity test; format: functional
[11] = tested on: Tribolium confusum; experiment: Antifeeding activity against Tribolium confusum (confused flour beetle) larvaes in compound treated wheat wafer disk assessed as absolute coefficient of deterrence by feeding deterrent activity test; format: functional
[12] = tested on: Leptinotarsa decemlineata; experiment: Antifeeding activity against Leptinotarsa decemlineata larvaes in compound treated wheat wafer disk assessed as relative coefficient of deterrence by feeding deterrent activity test; format: functional
[13] = tested on: Tribolium confusum; experiment: Antifeeding activity against Tribolium confusum (confused flour beetle) adults in compound treated wheat wafer disk assessed as absolute coefficient of deterrence by feeding deterrent activity test; format: functional
[14] = tested on: Trogoderma granarium; experiment: Antifeeding activity against Trogoderma granarium (khapra beetle) larvaes in compound treated wheat wafer disk assessed as relative coefficient of deterrence by feeding deterrent activity test; format: functional
[15] = tested on: Sitophilus granarius; experiment: Antifeeding activity against Sitophilus granarius (granary weevil) adults in compound treated wheat wafer disk assessed as absolute coefficient of deterrence by feeding deterrent activity test; format: functional
[16] = tested on: Tribolium confusum; experiment: Antifeeding activity against Tribolium confusum (confused flour beetle) adults in compound treated wheat wafer disk assessed as total coefficient of deterrence by feeding deterrent activity test; format: functional
[17] = tested on: Sitophilus granarius; experiment: Antifeeding activity against Sitophilus granarius (granary weevil) adults in compound treated wheat wafer disk assessed as relative coefficient of deterrence by feeding deterrent activity test; format: functional
[18] = tested on: Trogoderma granarium; experiment: Antifeeding activity against Trogoderma granarium (khapra beetle ) larvaes in compound treated wheat wafer disk assessed as absolute coefficient of deterrence by feeding deterrent activity test; format: functional
[19] = tested on: Leptinotarsa decemlineata; experiment: Antifeeding activity against Leptinotarsa decemlineata larvaes in compound treated wheat wafer disk assessed as absolute coefficient of deterrence by feeding deterrent activity test; format: functional

COc1ccc2c(c1)OC(C)(C)C1=C2OC(=O)C1
FDI [1]: 107.6 | FDI [2]: 76.8 | FDI [3]: 94.4 | FDI [4]: 114.1 | Activity [5]: Active | FDI [6]: 76.7 | FDI [7]: 49.2 | FDI [8]: 50.6 | FDI [9]: 60.3 | FDI [10]: 27.6 | FDI [11]: -6.7 | FDI [12]: 55 | FDI [13]: 19.7 | FDI [14]: 73.1 | FDI [15]: 19.7 | FDI [16]: 114.1 | FDI [17]: 94.4 | FDI [18]: 34.5 | FDI [19]: 21.7

COc1cc2c(cc1OC)C1=C(CC(=O)O1)C(C)(C)O2
FDI [1]: 116.2 | FDI [2]: 49.6 | FDI [3]: 91.6 | FDI [4]: 105.8 | Activity [5]: inactive | FDI [6]: 95.2 | FDI [7]: 29.9 | FDI [8]: 149.7 | FDI [9]: 90.7 | FDI [10]: 19.7 | FDI [11]: 59 | FDI [12]: 62.5 | FDI [13]: 14.2 | FDI [14]: 85 | FDI [15]: 14.2 | FDI [16]: 105.8 | FDI [17]: 91.6 | FDI [18]: 31.2 | FDI [19]: 32.7

COc1ccc2c(c1)OC(C)(C)C(CC(=O)O)=C2
FDI [1]: 108 | FDI [2]: 94.1 | FDI [3]: 95.7 | FDI [4]: 97.5 | Activity [5]: inactive | FDI [6]: 98.8 | FDI [7]: 70.9 | FDI [8]: 80.2 | FDI [9]: 86.4 | FDI [10]: 23.2 | FDI [11]: -6.2 | FDI [12]: 63.6 | FDI [13]: 1.8 | FDI [14]: 86 | FDI [15]: 1.8 | FDI [16]: 97.5 | FDI [17]: 95.7 | FDI [18]: 22 | FDI [19]: 35.2

COc1cc2c(cc1OC)OC(C)(C)C(CC(=O)O)=C2
FDI [1]: 97.4 | FDI [2]: 98.1 | FDI [3]: 88.9 | FDI [4]: 103.9 | Activity [5]: inactive | FDI [6]: 96.3 | FDI [7]: 63.7 | FDI [8]: 113.6 | FDI [9]: 73.1 | FDI [10]: 34.4 | FDI [11]: 40.5 | FDI [12]: 79.1 | FDI [13]: 15 | FDI [14]: 85.5 | FDI [15]: 15 | FDI [16]: 103.9 | FDI [17]: 88.9 | FDI [18]: 11.9 | FDI [19]: 17.2

COc1cc2c(cc1OC)[C@@H]1OC(=O)C[C@]1(I)C(C)(C)O2 (racemic)
FDI [1]: 120.1 | FDI [2]: 176.2 | FDI [3]: 89.5 | FDI [4]: 93.4 | Activity [5]: inactive | FDI [6]: 132 | FDI [7]: 89.1 | FDI [8]: 147.8 | FDI [9]: 93.6 | FDI [10]: 87.1 | FDI [11]: 54.2 | FDI [12]: 90.6 | FDI [13]: 3.9 | FDI [14]: 80.5 | FDI [15]: 3.9 | FDI [16]: 93.4 | FDI [17]: 89.5 | FDI [18]: 39.6 | FDI [19]: 41.4

COc1ccc2c(c1)OC(C)(C)[C@@]1(I)CC(=O)O[C@@H]21 (racemic)
FDI [1]: 111.4 | FDI [2]: 143 | FDI [3]: 93.4 | FDI [4]: 114.5 | Activity [5]: inactive | FDI [6]: 134.1 | FDI [7]: 81.4 | FDI [8]: 94.2 | FDI [9]: 77.5 | FDI [10]: 61.6 | FDI [11]: 16.7 | FDI [12]: 95.8 | FDI [13]: 21.1 | FDI [14]: 79.8 | FDI [15]: 21.1 | FDI [16]: 114.5 | FDI [17]: 93.4 | FDI [18]: 31.6 | FDI [19]: 38.3

COc1cc2c(cc1OC)OC(C)(C)C=C2 [PROCOCENE II]
FDI [1]: 198.6 | FDI [2]: 116 | FDI [3]: 94.2 | FDI [4]: 194.2 | Activity [5]: Active | FDI [6]: 124.1 | FDI [7]: 71.8 | FDI [8]: 165.7 | FDI [9]: 97.1 | FDI [10]: 44.2 | FDI [11]: 68.6 | FDI [12]: 91.2 | FDI [13]: 100 | FDI [14]: 100 | FDI [15]: 100 | FDI [16]: 194.2 | FDI [17]: 94.2 | FDI [18]: 98.6 | FDI [19]: 32.9

COc1ccc2c(c1)OC(C)(C)C=C2 [PROCOCENE I]
FDI [1]: 80.1 | FDI [2]: 115.7 | FDI [3]: 83.8 | FDI [4]: 139 | Activity [5]: Active | FDI [6]: 164.6 | FDI [7]: 73.8 | FDI [8]: 119.2 | FDI [9]: 64.1 | FDI [10]: 41.9 | FDI [11]: 55.1 | FDI [12]: 86.8 | FDI [13]: 55.2 | FDI [14]: 38.3 | FDI [15]: 55.2 | FDI [16]: 139 | FDI [17]: 83.8 | FDI [18]: 41.8 | FDI [19]: 77.8
